Test results reported in patent US20190307893A1, “NANOVESICLES WITH PORPHYRIN-LIPID CONJUGATE CORE” (UNIVERSITY HEALTH NETWORK, priority 2016, published 2019).
Entries after “also recorded” stand apart in the source; their conditions may differ.

How the values were obtained:
Assay type in all cases: physicochemical
[1] = UV/visible absorption of chlorin oleylamine loaded lipoprotein nanoparticles; settings: for Qy-band wavelength shift: intact lipoprotein nanoparticle in PBS vs monomeric form in methanol, 10:1 DMPC:dye
Description: Lipid film was prepared in 12 mm×75 mm clear glass threaded vials (Fisher Scientific) by combining 0.1 μmol (4, 10, 10, 13 or 17) and 1.0 μmol DMPC in chloroform. The lipid solutions were dried under a slow stream of nitrogen gas for 30 min and further dried under a higher stream for at least 1 h before hydration. One mL of phosphate buffered saline (PBS) was added to the dried lipid films and sonicated in a 47° C. water bath for 10 minutes immediately followed by Bioruptor at low frequency (30 kHz) for 30 cycles (30 s on/30 s off) at 40° C. R4F peptide (0.1 μmol; 1 mg/mL in PBS) was added into the rehydrated solution and the mixture was mixed gently at 4° C. overnight. The solution was centrifuged at 13 500 rpm for 20 min subsequently and filtered with a 0.1 μm membrane. Unbound peptide was removed and nanoparticle sample was concentrated using a 10 kDa membrane centrifugal filter (EMD Millipore) by two rounds of centrifugation at 4000 g for 7 min at 4° C.
The UV-Vis absorption spectra of lipoprotein nanoparticles with Zn-containing oleylamine compounds 4, 10 and 17 are shown in FIG. 14. The intact structures are labeled in green (solid line) and methanol-disrupted structures are labeled in black (dashed line).

[2] = Dynamic light scattering size measurement of chlorin derivatives embedded in liposomes; settings: 20% chlorin derivatives embedded within liposomes
Description: Lipid film was prepared in the 12 mm×35 mm clear glass threaded vials (Fisher Scientific) by combining 20% of chlorin derivatives (either Zn-MeO-chlorin acid 7, Zn-vinyl-chlorin lipid, MeO-chlorin lipid, or Zn-MeO-chlorin lipid) with 75% DPPC and 5% DPPE-mPEG2000 dissolved in MeOH or chloroform. The lipid solutions were dried under a stream of nitrogen gas for 30 min and further dried under vacuum desiccation for at least 3 h before hydration. One milliliter phosphate buffered saline (PBS) was added to the lipid films and 10 freeze and thaw cycles was performed by sequentially freezing the sample in liquid nitrogen, followed by rapid thawing in a 70° C. water bath. Dispersed particles were then subjected to extrusion by passing samples 10 times through a high pressure extruder loaded with 100 nm polycarbonate filter membranes at 70° C.
(§1) Z-average size and polydispersity of the samples in PBS were measured using a Malvern ZS90 (Instruments, UK). Absorption spectra of each sample was determined by UV spectroscopy (CARY 50 UV/Vis S3 Spectrophotometer, Varian Inc.). Absorption spectra of intact samples was measured in PBS, and that of detergent disrupted samples was measured after adding Triton-X100 so that the final detergent concentration was 0.1% v/v.

[3] = Fluorescence properties and quenching of chlorin derivatives in lipid nanovesicles; settings: embedded within lipid nanovesicles; for Full width at half max: fluorescence
Description: Fluorescence measurements were carried out Fluoromax ut on a Fluoromax-4 spectrofluorometer (Horiba Jobin Yvon, NJ) Fluorescence spectra of intact and detergent disrupted state was measured by exciting samples at 556 nm with a 5 nm slit width and collecting fluorescence from 600 nm to 800 with a 5 nm slit width. Quenching efficiency was calculated by the following equation: […]
(§2) Where F0 and Fdetergent are the integration of fluorescence intensity from 600 nm to 800 nm for intact and detergent-disrupted sample respectively. Circular dichroism spectra was measured in PBS and 0.1% Triton-X100 using a J-815 Circular Dichroism Spectrometer (JASCO Inc.).

[4] = UV/visible absorption and circular dichroism of chlorin-loaded lipid nanovesicles
Description: as §1, §2

[5] = Storage stability of nanoparticles at room temperature after freeze-thaw; settings: 10 days, PBS, after freeze-thaw rehydration
Description: The color of Zn-MeO-chlorin acid (7) and Zn-MeO-chlorinchlorin lipid (11) nanoparticles was monitored after 10 freeze and thaw cycles. Concentration of chlorin dyes in each sample was adjusted to 60 μM. Samples were stored in the dark at room temperature for 10 days.

[6] = 20% loading, intact nanovesicles

| Molecule | Qy-band wavelength shift [1] [nm] | Z-average [2] [nm·days] | FL λmax [3] [nm] | Stokes Shift [3] | Full width at half max [3] [nm] | ordered aggregation in the lipid bilayer ([4]; nanovesicles) | PDI (polydispersity index) [2] | stability on storage (visible dispersion) [5] | other results |
| --- | --- | --- | --- | --- | --- | --- | --- | --- | --- |
| C=Cc1c(C)c2[n]3c1=CC1=NC(=Cc4c(C)c5c([n]4[Zn]3)C(=C3N=C(C=2)[C@@H](C)[C@@H]3CCC(=O)NCCCCCCCC/C=C\CCCCCCCC)CC5=O)C(CC)=C1C [Zn-vinyl-chlorin oleylamine, Zinc 13^2-demethoxycarbonylpheophorbide-a oleylamine] | 8 | – | – | – | – | – | – | – | – |
| CCCCCCCCCCCCCCCC(=O)OCC(COP(=O)([O-])OCC[N+](C)(C)C)OC(=O)CC[C@@H]1c2nc(cc3[nH]c(cc4nc(cc5[nH]c6c2CC(=O)c6c5C)C(CC)=C4C)c(COC)c3C)[C@H]1C (some centres unmarked) [MeO-chlorin lipid, 3-Devinyl-3′-methoxymethyl-13^2-demethoxycarbonylpheophorbide-a lipid] | – | 105 ± 1.6 | 676 | 10 nm | 40 | did not | – | – | – |
| CCC1=C(C)C2=NC1=Cc1c(C)c3c4[n]1[Zn][n]1c(c(C)c(COC)c1=C2)=CC1=NC(=C4CC3=O)[C@@H](CCC(=O)O)[C@@H]1C [Zn-MeO-chlorin acid, Zinc 3-devinyl-3′-methoxymethy-13^2-demethoxycarbonylpheophorbide-a] | – | 113.9 ± 9.6 | 664 | 1 nm | 24 | – | > 0.3 | flocculated after 10 days; also recorded: Precipitate was observed | PDI (polydispersity index) ([2]; listed as Zu—MeO-chlorin acid): 0.3 ± 0.2; shift in optical absorption / CD ([4]; nanovesicles, 1% loading for Zn-MeO-chlorin acid, 20% for chlorin lipids): did not demonstrate appreciable shift in optical absorption nor CD |
| Zinc 3-Devinyl-3′-methoxymethyl-13^2-demethoxycarbonylpheophorbide-a lipid [Zn-MeO-chlorin lipid] | – | 96.0 ± 3.9 | 725 | no appreciable Stokes' shift | 15 | showed ordered aggregation | 0.10 ± 0.04 | remained visibly dispersed | Stokes Shift ([3]; listed as Zn—MeO-chlorin lipid): 0 nm; CD spectra [4, 6]: bisignate spectra around the Qy band region; far red-shifted absorption peak [4, 6]: 725 nm; secondary peak red-shift from the monomer absorption [4, 6]: 3 nm; bathochromic shift in the lowest energy absorption band (Qy) ([4]; lipid nanovesicles vs monomeric state in methanol or 0.1% Triton X-100): 72 nm; effect of dye loading beyond 20% on spectra ([4]; loading titrated 1-30 mol % of total lipid): neither UV/Vis spectra nor CD spectra significantly changed |
| Zinc 13^2-demethoxycarbonylpheophorbide-a lipid [Zn-vinyl-chlorin lipid] | – | 101 ± 2.3 | 682 | 9 nm | 21 | did not | – | – | – |
| CCCCCCCC/C=C\CCCCCCCCNC(=O)CC[C@@H]1C2=C3CC(=O)c4c(C)c5[n](c43)[Zn][n]3c(c(C)c(CO)c3=CC3=NC(=C5)C(CC)=C3C)=CC(=N2)[C@H]1C [Zn—OH-chlorin oleylamine, Zinc 3-Devinyl-3^1-hydroxyl-13^2-demethoxycarbonylpheophorbide-a oleylamine] | 61 | – | – | – | – | – | – | – | absorption when nanostructures disrupted ([1]; lipoprotein nanoparticles, disrupted): 654 nm; absorption of loaded (intact) nanoparticles ([1]; lipoprotein nanoparticles, intact): 715 nm |
